Measured values taken from patent US20250215016A1, “ISOXAZOLE-HETEROCYCLIC DERIVATIVE, PHARMACEUTICAL COMPOSITION AND USE” (SHANGHAI SIMR BIOTECHNOLOGY CO., LTD, priority 2022, published 2025).

Legend:
α5-GABAA receptor = α5-GABAA receptor (Homo sapiens (Human), UniProt P18507+P31644); experiment: Whole-cell patch clamp electrophysiology, inverse regulation activity in α5β3γ2-HEK293 cells; type: cell-based; conditions: compound 100 nM; GABA 0.05-0.06 μM (about EC7-8); clamped at −60 mV; read-out: Inverse regulation efficiency to α5-GABAA receptor
Excerpt: α, β and γ subunits are essential for the formation of a complete functional GABAA receptor. […] The specific subunit protein sequences are as follows: α5 subunit (protein sequence can be found in GenBank accession number: NM_000810.3); α2 subunit (protein sequence can be found in GenBank accession number: NM_000807.4); β3 subunit (protein sequence can be found in GenBank accession number: NM_000814.5); γ2 subunit (protein sequence can be found in GenBank accession number: NM_000816.3).
(§1) The above cell lines were subcultured. Amplification of α5β3γ2-HEK293 and α2β3γ2-HEK293 cells was used to test the affinity of the compounds to benzodiazepine site (BZD) of the GABAA receptor. During the passage of α5β3γ2-HEK293 cells, some of the suspended cells were spread on a glass slide pretreated with Poly-D-Lysine for electrophysiological testing.
The inverse regulation activity of the test drugs on α5-GABAA receptor was detected by an electrophysiological method. The specific method was as follows:
Compound concentration setting: the final concentration of the compounds used for compound screening was 100 nM. GABA concentration was 0.05-0.06 μM (about EC7-8). […] The extracellular fluid (ECS) ingredients for electrophysiology were as follows: 150 mM NaCl, 5 mM KCl, 2.5 mM CaCl2, 1 mM MgCl2, 10 mM HEPES and 10 mM glucose (pH 7.4); the electrode internal solution (ICS) formula for electrophysiology was as follows: 140 mM CsCl, 11 mM EGTA, 10 mM HEPES, 2 mM CaCl2, 1 mM MgCl2, 4 mM MgATP, 2 mM TEA (pH 7.3). The above reagents were all purchased from Sigma aldrich. GABA (γ-aminobutyric acid, from sigma aldrich, lot: A5385) powder was prepared into a stock solution with pure water and then diluted in ECS. The compound was first prepared into a 4 mM stock solution with DMSO, and then gradually diluted in corresponding concentrations of GABA-ECS. The solutions were all prepared fresh prior to electrophysiological testing.
Electrophysiological signal acquisition were performed by using EPC 10 amplifier and PatchMaster software (HEKA) or Axon 700 B amplifier and Clampex software (AXON). The recording electrode was made by drawing borosilicate glass (purchased from sutter), and has an electrode resistance of 4˜6 MΩ. Extracellular administration was carried out using ALA-VC-8PG (purchased from ALA, USA) system. A single independently grown cell was selected, and lysis was performed after the glass electrode and the cell forming a good seal, to form a whole cell mode. With the cellular membrane potential clamped at −60 mV, recording was carried out in the Gap-free mode. For the test, extracellular fluid was first applied extracellularly for about 20 seconds. After baseline (Iprebaseline) was stabilized, the extracellular fluid was switched to GABA-ECS. At this time, the current (Igaba) caused by GABA can be detected. At about 20-40 seconds, after the current stabilized, the extracellular fluid was switched to a mixed solution of the compound and GABA-ECS, until the current (Itreatment) caused by both the compound and GABA can be detected. Finally, the solution was switched to the extracellular fluid and the test was terminated after recording for 20-40 seconds.
The experimental results were analyzed using PatchMaster v2x90.1 or PatchMaster v2x90.3 software (EPC 10 amplifier) and Clampex10.6 software (Axon700B amplifier). The current value of each stage was calculated according to the average value of the stabilized current under the corresponding conditions. We defined the control current as Igaba−Iprebaseline, and the current after compound treatment as Itreatment−Iprebaseline. The inverse regulation activity of the compounds is expressed as a percentage and is calculated according to the following formula: Inverse regulation efficiency=[(Itreatment−Igaba)/(Igaba−Iprebaseline)]×100%.

[1] = molecular target: human α2β3γ2 receptor (α2-GABAA receptor) (Homo sapiens (Human), UniProt P18507+P47869); experiment: Radioligand (3H-flunitrazepam) competition binding assay, BZD site; α2 vs α5 binding selectivity; conditions: ratio of Ki at α2β3γ2 to Ki at α5β3γ2
Excerpt: (§2) α, β and γ subunits are essential for the formation of a complete functional GABAA receptor. In this example, HEK293 cell strains stably expressing human α5-GABAA receptor (comprising α5β3γ2 subunit) and α2-GABAA receptor (comprising α2β3γ2 subunit) were constructed and screened, respectively, by liposome transfection method (Felgner, P. L., et al., Proceedings of the National Academy of Sciences, 1987, 84:7413-7417). The specific subunit protein sequences are as follows: α5 subunit (protein sequence can be found in GenBank accession number: NM_000810.3); α2 subunit (protein sequence can be found in GenBank accession number: NM_000807.4); β3 subunit (protein sequence can be found in GenBank accession number: NM_000814.5); γ2 subunit (protein sequence can be found in GenBank accession number: NM_000816.3).
as §1
(§3) Flunitrazepam is a non-specific reagent that binds to the BZD site efficiently. The affinity of the compounds to the BZD sites of the human α5β3γ2 and α2β3γ2 receptors can be determined by competing the compound with ^3H-flunitrazepam (isotope ^3H-labeled flunitrazepam) for binding to these two receptors.
(§4) Membrane preparation: HEK293 cells stably expressing human α5β3γ2 receptor or α2β3γ2 receptor were collected, suspended in 50 mM Tris-HCl buffer (pH=7.4), homogenized on ice by a homogenizer for 20 seconds 10 times, and centrifuged at 4° C., 1000 g for 10 min. The supernatant was collected, and the above steps were repeated. The supernatant was centrifuged (33800 g; centrifuge purchased from Thermo, rotor model: A27-8×50) at 4° C. for 60 min, and the precipitate was resuspended in Tris buffer (50 mM Tris-HCl, 10 mM MgCl2, 0.5 mM EDTA, 10% glycerol). The precipitate was the cell membrane. Protein content was determined by BCA (Bicinchoninic Acid) method (BCA kit from Pierce (Annoron)). The cell membrane was prepared into 1 ml aliquot and stored at −80° C.
(§5) Radioligand competition binding assay: the assay was carried out in a 200 μL system (96-well plate from Agilent) with 100 μL of cell membrane. The concentration of ^3H-flunitazepam (from PerkinElmer, lot: NET567250 UC) was 1 nM and the concentration of test compound was in the range 1×10^−5-10^−6 M. Flumazenil (from Tocris; lot: 1318) was used as a control. 1 μL of 2 mM flumazenil (final concentration 10 μM) was added to the Low signal control well (Low control, LC) and 1 μL of DMSO (from Sigma aldrich, lot: 472301) was added to the High signal control well (High control, HC). The final target membrane protein concentration was 5 μg/well. All test compound sample stocks were 10 mM DMSO solutions. The working concentration of the samples is to dilute all samples with DMSO to 0.2 mM, and then perform 4-fold continuous gradient dilution for a total of 8 concentration gradients. The 96-well plate was sealed with a plate sealing membrane and then incubated on a shaker at room temperature for 1 hour. Meanwhile, GF/C filter plate was soaked with a plate soaking buffer (0.3% PEI, polyethyleneimine, purchased from Sigma aldrich, model: P314, stored at 4° C.) for at least 0.5 hours. After completion of binding incubation, the cells were collected with a cell collector onto the GF/C filter plate and washed four times with a plate washing buffer (50 mM Tris-HCl, pH 7.4, stored at 4° C.). […]

[2] = molecular target: human α5β3γ2 receptor (α5-GABAA receptor) (Homo sapiens (Human), UniProt P18507+P31644); experiment: Radioligand (3H-flunitrazepam) competition binding assay, BZD site; conditions: 3H-flunitrazepam 1 nM; HEK293 membranes expressing human α5β3γ2
Excerpt: as §2, §1, §3, §4, §5

[3] = Stability in simulated gastric fluid (SGF); type: physicochemical; conditions: 37° C., 1000 rpm
Method: Simulated gastric fluid (SGF), Manufacturer: Dongguan Chuangfeng Automation Technology Co., Ltd.; Product model: CF-006.
Oscillating constant temperature metal bath, Model: Thermo; Manufacturer: Digital Skaking Drybath.
Temperature: 37° C.; rotating speed: 1000 rpm; sampling time: 0, 4 hours.
Chromatographic column: Welch Xtimate C18 3.0×100 mm, 5 μm. Mobile phase: A: 0.04% trifluoroacetic acid (TFA)/H2O (v/v), B: acetonitrile (ACN). Gradient elution was performed according to the following table, flow rate: 1.0 mL/min; injection volume: 5 μL; column temperature: 35° C.; wavelength: 254 nm.
• (a) preparation of 0.04% TFA/H2O: 400 μL of TFA was measured, placed into 1 L of H2O, and homogenously mixed; • (b) Sample stock solution: about 3 mg of test sample was weighed, and prepared into a stock solution of 10 mmol/L using DMSO; • (c) 50 μL of the sample stock solution was taken, placed into a 5 mL volumetric flask, made up to the scale with the addition of SGF, and homogenously mixed. 400 μL of the solution was taken, four samples in parallel, and shaken at 1000 rpm and 37° C.; • (d) every two samples were taken after 0 and 4 hours respectively, 400 μL of acetonitrile was added, and homogenously mixed, followed by liquid phase injection, and calculation of the change % of the main peak area in the solution after 4 hours relative to 0 hour, two average value reports being taken at each time point.

inhibition at 0.1 µM (α5-GABAA receptor) [%]	Selectivity α2 ki/α5 ki [1] [folds]	Ki [2] [nM]	Residual content in simulated gastric juice after 4 hours (compared with 0 hour content) [3]	Structure (SMILES)
45	109	11.2	–	Cc1onc(-c2ccc(F)cc2)c1COc1ccc(-c2nnc3n2CCCOC3)cn1 [Compound 20, 3-(6-((3-(4-fluorophenyl)-5-methylisoxazol-4-yl)methoxy)pyridin-3-yl)-6,7-dihydro-5H,9H-[1,2,4]triazolo[3,4-c][1,4]oxazepane]
35	–	4.93	83% (4 hours)	Cc1onc(-c2ccc(F)cc2)c1COc1cnc(-c2nnc3n2CCCC3)cn1 [Compound 32, 3-(4-fluorophenyl)-5-methyl-4-(((5-(5,6,7,8-tetrahydro-[1,2,4]triazolo[4,3-a]pyridin-3-yl)pyrazin-2-yl)oxy)methyl)isoxazole]
18	–	21.8	98% (4 hours)	Cc1onc(-c2ccc(F)cc2)c1COc1cnc(N2CCN3CCOC[C@@H]3C2)cn1 [Compound 40, (S)-8-(5-((3-(4-fluorophenyl)-5-methylisoxazol-4-yl)methoxy)pyrazin-2-yl) octahydropyrazino [2,1-c][1,4]oxazine]
36	–	0.99	94% (4 hours)	Cc1onc(-c2ccc(F)cc2)c1COc1cnc(-c2cnn3c2COCC3)cn1 [Compound 44, 3-(5-((3-(4-fluorophenyl)-5-methylisoxazol-4-yl)methoxy)pyrazin-2-yl)-6,7-dihydro-4H-pyrazolo[5,1-c][1,4]oxazine]
21	–	3.09	87% (4 hours)	Cc1cn2c(n1)CN(c1cnc(OCc3c(-c4ccc(F)cc4)noc3C)cn1)CC2 [Compound 46, 3-(4-fluorophenyl)-5-methyl-4-(((5-(2-methyl-5,6-dihydroimidazo [1,2-a]pyrazin-7(8H)-yl)pyrazin-2-yl)oxy)methyl)isoxazole]
25	–	68.5	88% (4 hours)	Cc1onc(-c2ccc(F)cc2)c1COc1cnc(N2CCn3ccnc3C2)cn1 [Compound 48, 4-(((5-(5,6-dihydroimidazo [1,2-a]pyrazin-7(8H)-yl)pyrazin-2-yl)oxy)methyl)-3-(4-fluorophenyl)-5-methylisoxazole]
37	–	3.84	31% (4 hours)	Cc1onc(-c2ccc(F)cc2)c1COc1ccc(N2CCN3CCOC[C@@H]3C2)nn1 [Compound 49, (S)-8-[6-((3-(4-fluorophenyl)-5-methylisoxazol-4-yl)methoxy)pyridazin-3-yl] octahydropyrazino[2,1-c][1,4]oxazine]
49	–	8.63	82% (4 hours)	Cc1onc(-c2ccc(F)cc2)c1COc1ccc(-n2nnc3c2CCOC3)cn1 [Compound 50, 1-(6-((3-(4-fluorophenyl)-5-methylisoxazol-4-yl)methoxy)pyridin-3-yl)-1,4,6,7-tetrahydropyran[3,4-d][1,2,3]triazole]
–	14.5	–	–	COc1ncc(-c2ccc(OCc3c(C)nnn3-c3ccc(C(F)F)cc3)nn2)cn1 [WO2020016443A1, Example 3, reference compound]
–	13.2	–	–	Cc1ncc(-c2ccc(OCc3c(C)nnn3-c3ccc(C(F)F)cc3)nn2)o1 [WO2020016443A1, Example 6, reference compound]
–	7.67	–	–	Cc1nnn(-c2ccc(C(F)F)cc2)c1COc1ccc(-n2cnc(C(F)F)c2)nn1 [WO2020016443A1, Example 15, reference compound]
